What all share (experiment): KINOMEscan
Common to all, as to format: binding
What all share (settings): read-out: % control activity remaining

Experiment [1] addresses T1, SNARK (Homo sapiens, UniProt Q9H093).
T1 construct: purchased Eurofins DiscoverX KINOMEscan
T1 sequence (Q9H093 1-628): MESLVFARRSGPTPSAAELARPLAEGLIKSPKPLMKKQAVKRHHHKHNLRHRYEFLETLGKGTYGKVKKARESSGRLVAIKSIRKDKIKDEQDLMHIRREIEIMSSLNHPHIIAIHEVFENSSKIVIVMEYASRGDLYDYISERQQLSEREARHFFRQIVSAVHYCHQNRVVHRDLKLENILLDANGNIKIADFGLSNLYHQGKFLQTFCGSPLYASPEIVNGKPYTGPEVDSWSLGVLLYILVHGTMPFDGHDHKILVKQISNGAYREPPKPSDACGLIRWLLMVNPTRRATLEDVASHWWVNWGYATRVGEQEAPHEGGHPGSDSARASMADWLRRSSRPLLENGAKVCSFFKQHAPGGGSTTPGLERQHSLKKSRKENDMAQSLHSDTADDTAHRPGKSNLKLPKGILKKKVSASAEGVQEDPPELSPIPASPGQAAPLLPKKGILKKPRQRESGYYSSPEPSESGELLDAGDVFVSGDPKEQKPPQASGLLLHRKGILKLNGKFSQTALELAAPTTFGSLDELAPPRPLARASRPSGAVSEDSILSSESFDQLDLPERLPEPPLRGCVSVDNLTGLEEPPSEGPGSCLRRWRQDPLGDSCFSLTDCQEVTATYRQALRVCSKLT

In experiment [2] the target is T2, PRKR (Homo sapiens, UniProt P19525).
T2 construct: purchased Eurofins DiscoverX KINOMEscan
T2 sequence (P19525 whole entry): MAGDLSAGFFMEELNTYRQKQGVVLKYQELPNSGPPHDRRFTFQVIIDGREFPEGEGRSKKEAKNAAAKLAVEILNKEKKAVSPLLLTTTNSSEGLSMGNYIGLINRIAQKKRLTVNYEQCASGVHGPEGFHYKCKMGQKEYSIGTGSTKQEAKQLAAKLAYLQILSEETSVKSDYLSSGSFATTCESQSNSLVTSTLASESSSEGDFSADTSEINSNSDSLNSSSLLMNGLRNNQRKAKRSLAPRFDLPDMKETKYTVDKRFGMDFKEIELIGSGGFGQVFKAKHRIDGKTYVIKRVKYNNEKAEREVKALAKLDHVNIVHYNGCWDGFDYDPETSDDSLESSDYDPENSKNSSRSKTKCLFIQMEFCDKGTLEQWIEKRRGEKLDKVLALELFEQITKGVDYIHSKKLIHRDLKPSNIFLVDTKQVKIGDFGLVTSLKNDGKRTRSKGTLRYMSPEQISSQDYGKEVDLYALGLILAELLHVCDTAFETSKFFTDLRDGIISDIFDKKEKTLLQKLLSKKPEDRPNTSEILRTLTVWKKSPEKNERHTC

Experiment [3] has as its target T3, TLK1 (Homo sapiens, UniProt Q9UKI8).
T3 construct: purchased Eurofins DiscoverX KINOMEscan
T3 sequence (Q9UKI8 1-766): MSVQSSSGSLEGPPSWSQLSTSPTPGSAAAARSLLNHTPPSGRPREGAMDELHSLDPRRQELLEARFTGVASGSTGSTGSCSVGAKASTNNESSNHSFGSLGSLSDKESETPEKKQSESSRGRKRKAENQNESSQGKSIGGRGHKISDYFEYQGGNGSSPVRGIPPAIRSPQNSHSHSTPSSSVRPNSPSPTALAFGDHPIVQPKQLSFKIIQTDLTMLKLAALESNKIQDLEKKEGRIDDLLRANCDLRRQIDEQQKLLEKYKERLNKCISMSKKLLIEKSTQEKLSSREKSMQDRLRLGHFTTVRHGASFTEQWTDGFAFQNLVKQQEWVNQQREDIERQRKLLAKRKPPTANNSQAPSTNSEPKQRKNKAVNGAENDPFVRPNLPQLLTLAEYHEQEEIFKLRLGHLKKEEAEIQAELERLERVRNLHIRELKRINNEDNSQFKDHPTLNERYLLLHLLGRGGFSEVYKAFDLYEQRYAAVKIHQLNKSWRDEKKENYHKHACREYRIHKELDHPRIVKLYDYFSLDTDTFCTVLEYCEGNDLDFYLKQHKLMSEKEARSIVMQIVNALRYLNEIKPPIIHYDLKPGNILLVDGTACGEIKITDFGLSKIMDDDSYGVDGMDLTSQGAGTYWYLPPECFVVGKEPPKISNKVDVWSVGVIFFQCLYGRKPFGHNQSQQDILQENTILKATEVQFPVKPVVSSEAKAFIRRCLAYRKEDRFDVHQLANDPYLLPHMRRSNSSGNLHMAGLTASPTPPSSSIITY

For experiment [4], the target named is T4, EGFR(G719S) (Homo sapiens, UniProt P00533, G719S).
T4 construct: purchased Eurofins DiscoverX KINOMEscan
T4 sequence (P00533 25-1210 G719S limits assumed): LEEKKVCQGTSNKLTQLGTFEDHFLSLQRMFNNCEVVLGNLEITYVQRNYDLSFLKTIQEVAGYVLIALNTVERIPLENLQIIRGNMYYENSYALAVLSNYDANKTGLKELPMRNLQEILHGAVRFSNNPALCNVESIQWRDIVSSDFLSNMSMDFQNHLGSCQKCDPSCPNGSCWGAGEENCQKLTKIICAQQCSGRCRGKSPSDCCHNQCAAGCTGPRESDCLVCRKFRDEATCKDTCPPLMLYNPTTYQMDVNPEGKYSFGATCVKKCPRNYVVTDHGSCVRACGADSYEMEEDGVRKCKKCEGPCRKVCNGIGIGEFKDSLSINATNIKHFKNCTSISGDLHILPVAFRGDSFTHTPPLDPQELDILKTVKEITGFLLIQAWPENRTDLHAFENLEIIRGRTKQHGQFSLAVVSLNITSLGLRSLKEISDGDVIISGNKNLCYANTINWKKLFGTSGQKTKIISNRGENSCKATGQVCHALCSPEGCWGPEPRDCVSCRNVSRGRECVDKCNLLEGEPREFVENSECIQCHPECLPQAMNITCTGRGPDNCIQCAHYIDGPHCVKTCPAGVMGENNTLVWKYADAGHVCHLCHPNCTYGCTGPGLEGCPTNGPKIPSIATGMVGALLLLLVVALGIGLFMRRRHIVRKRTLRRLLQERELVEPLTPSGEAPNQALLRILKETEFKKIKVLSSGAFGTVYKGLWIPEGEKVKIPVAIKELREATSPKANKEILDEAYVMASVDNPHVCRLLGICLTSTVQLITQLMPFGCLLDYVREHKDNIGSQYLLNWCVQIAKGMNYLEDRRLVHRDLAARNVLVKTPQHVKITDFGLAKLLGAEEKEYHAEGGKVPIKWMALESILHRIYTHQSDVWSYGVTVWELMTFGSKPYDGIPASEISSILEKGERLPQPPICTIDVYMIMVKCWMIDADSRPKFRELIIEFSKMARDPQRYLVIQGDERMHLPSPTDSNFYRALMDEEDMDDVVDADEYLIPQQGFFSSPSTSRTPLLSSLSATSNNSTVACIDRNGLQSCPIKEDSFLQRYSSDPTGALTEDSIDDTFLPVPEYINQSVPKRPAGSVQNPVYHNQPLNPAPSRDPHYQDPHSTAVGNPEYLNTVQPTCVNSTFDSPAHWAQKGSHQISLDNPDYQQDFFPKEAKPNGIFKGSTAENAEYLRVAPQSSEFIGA

In experiment [5] the target is T5, PIP5K1A (Homo sapiens, UniProt Q99755).
T5 construct: purchased Eurofins DiscoverX KINOMEscan
T5 sequence (Q99755 whole entry): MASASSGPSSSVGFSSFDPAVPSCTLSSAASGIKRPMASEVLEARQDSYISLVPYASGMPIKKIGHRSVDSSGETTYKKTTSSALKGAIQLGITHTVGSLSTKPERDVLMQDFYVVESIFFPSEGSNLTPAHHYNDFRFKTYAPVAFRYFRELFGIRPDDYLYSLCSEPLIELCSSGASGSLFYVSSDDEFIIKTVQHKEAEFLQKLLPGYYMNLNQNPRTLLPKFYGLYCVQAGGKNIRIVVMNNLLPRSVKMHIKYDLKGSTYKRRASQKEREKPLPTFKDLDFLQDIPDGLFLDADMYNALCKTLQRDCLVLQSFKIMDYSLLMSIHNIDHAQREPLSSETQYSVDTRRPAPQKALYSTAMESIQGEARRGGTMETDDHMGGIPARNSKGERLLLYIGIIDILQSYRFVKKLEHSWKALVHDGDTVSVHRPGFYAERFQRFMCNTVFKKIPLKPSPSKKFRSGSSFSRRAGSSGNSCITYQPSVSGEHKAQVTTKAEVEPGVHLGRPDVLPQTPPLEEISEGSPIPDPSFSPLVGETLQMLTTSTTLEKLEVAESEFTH

Experiment [6] has as its target T6, HCK (Homo sapiens, UniProt P08631).
T6 construct: purchased Eurofins DiscoverX KINOMEscan

Experiment [7] deals with T7, MYO3B (Homo sapiens, UniProt Q8WXR4).
T7 construct: purchased Eurofins DiscoverX KINOMEscan
T7 sequence (Q8WXR4 1-1341): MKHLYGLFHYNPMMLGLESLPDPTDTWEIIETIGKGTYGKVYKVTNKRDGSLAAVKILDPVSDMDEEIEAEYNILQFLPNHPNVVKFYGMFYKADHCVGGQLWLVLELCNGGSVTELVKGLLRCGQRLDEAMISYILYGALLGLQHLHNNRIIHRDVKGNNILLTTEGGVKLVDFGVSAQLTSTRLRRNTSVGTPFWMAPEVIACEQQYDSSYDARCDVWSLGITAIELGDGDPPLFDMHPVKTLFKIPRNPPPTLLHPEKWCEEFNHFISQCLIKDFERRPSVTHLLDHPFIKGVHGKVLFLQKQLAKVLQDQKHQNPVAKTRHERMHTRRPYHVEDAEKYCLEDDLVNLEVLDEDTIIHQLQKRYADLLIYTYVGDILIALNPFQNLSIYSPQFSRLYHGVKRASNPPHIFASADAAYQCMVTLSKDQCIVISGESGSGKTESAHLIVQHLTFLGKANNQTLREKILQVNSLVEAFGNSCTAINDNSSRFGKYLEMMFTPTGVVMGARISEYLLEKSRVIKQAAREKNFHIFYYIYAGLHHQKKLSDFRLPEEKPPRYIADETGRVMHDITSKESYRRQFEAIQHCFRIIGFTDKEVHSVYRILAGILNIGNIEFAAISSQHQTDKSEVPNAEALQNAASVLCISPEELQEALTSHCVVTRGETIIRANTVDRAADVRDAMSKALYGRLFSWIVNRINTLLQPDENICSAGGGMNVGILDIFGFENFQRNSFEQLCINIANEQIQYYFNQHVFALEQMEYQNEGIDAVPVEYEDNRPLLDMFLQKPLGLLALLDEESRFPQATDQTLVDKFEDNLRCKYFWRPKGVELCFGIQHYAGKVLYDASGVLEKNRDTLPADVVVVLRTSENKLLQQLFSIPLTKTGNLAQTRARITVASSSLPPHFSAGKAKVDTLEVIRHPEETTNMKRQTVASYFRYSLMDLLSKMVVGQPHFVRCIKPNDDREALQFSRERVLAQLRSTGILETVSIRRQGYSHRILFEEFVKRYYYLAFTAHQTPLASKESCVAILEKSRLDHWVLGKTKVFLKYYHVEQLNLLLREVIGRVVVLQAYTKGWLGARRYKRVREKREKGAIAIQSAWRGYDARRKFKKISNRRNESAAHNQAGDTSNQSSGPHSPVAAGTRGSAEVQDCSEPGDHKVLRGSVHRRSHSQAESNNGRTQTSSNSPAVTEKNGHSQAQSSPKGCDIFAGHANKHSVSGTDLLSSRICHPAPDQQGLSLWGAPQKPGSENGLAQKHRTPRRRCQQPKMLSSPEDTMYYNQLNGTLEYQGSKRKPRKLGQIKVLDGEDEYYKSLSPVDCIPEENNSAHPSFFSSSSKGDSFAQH

The target of experiment [8] is T8, RAF1 (Homo sapiens, UniProt P04049).
T8 construct: purchased Eurofins DiscoverX KINOMEscan
T8 sequence (P04049 whole entry): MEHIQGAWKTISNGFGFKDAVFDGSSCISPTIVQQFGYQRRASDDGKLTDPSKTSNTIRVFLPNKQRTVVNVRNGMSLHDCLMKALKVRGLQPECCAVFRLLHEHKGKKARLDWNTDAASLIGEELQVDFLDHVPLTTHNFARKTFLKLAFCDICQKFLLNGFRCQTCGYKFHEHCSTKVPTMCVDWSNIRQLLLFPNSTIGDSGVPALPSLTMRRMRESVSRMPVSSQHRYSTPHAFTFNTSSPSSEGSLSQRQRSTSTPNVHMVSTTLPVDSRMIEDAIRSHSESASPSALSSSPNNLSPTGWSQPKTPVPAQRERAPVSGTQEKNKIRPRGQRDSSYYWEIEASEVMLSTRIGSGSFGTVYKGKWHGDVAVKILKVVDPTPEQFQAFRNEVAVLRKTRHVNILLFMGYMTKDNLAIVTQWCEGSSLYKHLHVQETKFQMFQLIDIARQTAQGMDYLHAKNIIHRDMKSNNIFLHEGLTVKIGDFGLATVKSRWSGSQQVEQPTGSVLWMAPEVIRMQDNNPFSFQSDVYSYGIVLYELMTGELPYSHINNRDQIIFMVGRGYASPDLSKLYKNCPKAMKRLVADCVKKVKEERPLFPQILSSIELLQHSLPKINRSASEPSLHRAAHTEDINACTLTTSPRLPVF

Drawing on article PMC6437697 (Journal of Medicinal Chemistry, 2019), this text covers remaining binding for 3 compounds.

T6 sequence (P08631 whole entry): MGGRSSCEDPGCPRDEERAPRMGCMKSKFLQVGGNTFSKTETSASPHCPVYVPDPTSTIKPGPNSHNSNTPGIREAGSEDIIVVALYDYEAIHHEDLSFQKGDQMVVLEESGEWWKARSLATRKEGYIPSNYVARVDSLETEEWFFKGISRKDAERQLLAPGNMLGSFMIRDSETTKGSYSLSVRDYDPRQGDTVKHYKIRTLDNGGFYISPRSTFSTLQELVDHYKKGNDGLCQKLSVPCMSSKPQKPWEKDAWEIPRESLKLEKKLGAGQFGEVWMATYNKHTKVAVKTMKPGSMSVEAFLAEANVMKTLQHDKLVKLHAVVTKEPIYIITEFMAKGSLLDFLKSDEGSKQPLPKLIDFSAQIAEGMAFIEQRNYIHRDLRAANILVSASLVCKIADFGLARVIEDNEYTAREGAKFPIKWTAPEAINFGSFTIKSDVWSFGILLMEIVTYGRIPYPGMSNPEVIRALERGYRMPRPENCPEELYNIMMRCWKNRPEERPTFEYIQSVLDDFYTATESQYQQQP

On to `Clc1cc(NCC2CC2)c2ncc(-c3ccc4[nH]ncc4c3)n2n1` [compound 2, 6-Chloro-N-(cyclopropylmethyl)-3-(1H-indazol-5-yl)imidazo[1,2-b]pyridazin-8-amine], for which the remaining binding at 1 µM in experiment [1] stood at 99%; in experiment [2], 97%; in experiment [3], 96%; in experiment [4], 85%; in experiment [5] it was 100%; in experiment [6], 80%. Besides, the remaining binding at 1 µM in experiment [7] was found to be 82%; in experiment [8], 99%.

For `O=C(CN1CCOCC1)N[C@H]1CC[C@H](Nc2cc(Cl)nn3c(-c4ccc5[nH]ncc5c4)cnc23)CC1` [compound 26], the remaining binding at 1 µM in experiment [1] was 73%; in experiment [2] it was 97%; in experiment [3], 87%; in experiment [4], 97%; in experiment [5], 80%; in experiment [6], 93%. Besides, the figures for the remaining binding at 1 µM in experiment [7] and in experiment [8] were 92% and 100%, respectively.

Regarding `CN1CCC(CNc2cc(Cl)nn3c(-c4cc5nc(Nc6ccccc6)[nH]c5cc4F)cnc23)CC1` [compound 31, 6-Chloro-3-(6-fluoro-2-(phenylamino)-1H-benzo[d]imidazol-5-yl)-N-((1-methylpiperidin-4-yl)methyl)imidazo[1,2-b]pyridazin-8-amine], the remaining binding at 1 µM in experiment [1] worked out at 88%; in experiment [2], 81%; in experiment [3], 93%; in experiment [4], 71%; in experiment [5] it was 91%; in experiment [6], 87%. Moreover, the remaining binding at 1 µM in experiment [7] is 73%; in experiment [8] it was 100%.
